Data reported in patent US20190167819A1, “CONTRAST AGENTS” (BRACCO IMAGING S.P.A., priority 2016, published 2019).

Experiment: Relaxometric properties: longitudinal relaxivity r1p in human plasma
Format: physicochemical
Settings: 37° C.
Experimental: The relaxometric properties of some representative complex compounds according to the invention have been determined at different magnetic field strengths, e.g. including 0.47 and 1.41 T, at 37° C. and in different media (physiologic solution and human plasma) and compared with relaxivity values measured, at the same conditions, for some Gd-Complex of the market having an analogous cyclic coordination cage.
The longitudinal water proton relaxation rate (R1=1/T1) was measured at 0.47 T with a Minispec MQ-20 spectrometer (Bruker Biospin, Germany) operating at a proton Larmor frequency of 20 MHz; MR experiments at 1.41 T were performed using a Minispec MQ-60 spectrometer (Bruker Biospin, Germany) operating at a proton Larmor frequency of 60 MHz.
All test articles were used as supplied and diluted in the selected medium (physiologic solution or human plasma) by weighting the required amount of paramagnetic chelated complex to get a 5 or 10 mM starting solution.
Five different concentration samples (0.1, 0.25, 0.5, 0.75 and 1 mM) for each medium have been prepared by further dilution of the starting 5 or 10 mM solution.
Relaxivity measurements were performed at 0.47 T and 1.41 T at a preset temperature sample of 37° C., kept constant by means of a thermostatic bath connected to the sample holder of the spectrometer. The five sample solutions have been preliminary pre-heated at 37° C. in an external thermostatic bath and then left 10 minutes inside the internal bath to assure the stabilization of the temperature. Longitudinal relaxation time T1 was measured by means of a standard inversion recovery sequence, where the inversion time (TI) was varied from 10 ms to at least 5 times T1 in 15 steps. Statistical analysis (mono-exponential fitting for T1 measurement, linear fitting for the evaluation of longitudinal relaxivity) was performed by Mathematica® (Wolfram, USA). Errors on the estimated parameters were evaluated by the fitting procedure.

| r1p in human plasma (0.47 T) [mM⁻¹ s⁻¹] | r1p in human plasma (1.41 T) [mM⁻¹ s⁻¹] | SMILES |
| --- | --- | --- |
| 4.5 | 3.6 | O=C(O)CN1CCN(CC(=O)O)CCN(CC(=O)O)CCN(CC(=O)O)CC1 |
| 7.41 | 6.8 | O=C(O)CN1CCN(CC(O)COCC(COCC(O)CN2CCN(CC(=O)O)CCN(CP(=O)(O)O)CCN(CC(=O)O)CC2)OCc2ccccc2)CCN(CC(=O)O)CCN(CP(=O)(O)O)CC1 (stereo not drawn) |

| SMILES | r1p in human plasma (0.47 T) [mM⁻¹ s⁻¹] | r1p in human plasma (1.41 T) [mM⁻¹ s⁻¹] |
| --- | --- | --- |
| CC(O)CN1CCN(CC(=O)O)CCN(CC(=O)O)CCN(CC(=O)O)CC1 (stereo not drawn) (Gd complex, metal not drawn) | 4.9 | 4.15 |
